# In US8492559B2, “Substituted indole compounds” (Gruenenthal GmbH, priority 2009, dated 2013):
# Biological target: T1, human B1R receptor (hB1R) (Homo sapiens, UniProt P46663)
# T1 construct: expressed in transfected cells; host or cells: CHO K1 cells
# T1 sequence (P46663 1-353): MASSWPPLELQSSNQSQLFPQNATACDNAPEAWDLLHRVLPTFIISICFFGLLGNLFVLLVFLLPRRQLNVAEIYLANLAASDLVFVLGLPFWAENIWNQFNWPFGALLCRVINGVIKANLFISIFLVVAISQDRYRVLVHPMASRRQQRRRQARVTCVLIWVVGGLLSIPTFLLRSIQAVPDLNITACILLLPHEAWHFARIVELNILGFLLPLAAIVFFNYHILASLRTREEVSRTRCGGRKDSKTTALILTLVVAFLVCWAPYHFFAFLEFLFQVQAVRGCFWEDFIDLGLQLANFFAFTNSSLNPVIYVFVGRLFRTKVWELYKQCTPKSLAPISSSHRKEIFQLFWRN
# Assay: Functional investigation on the bradykinin 1 receptor (B1R), FLIPR Ca2+ assay, hB1R cells
# Type: cell-based
# Settings: 10 μM test substance; CHO K1 cells with human B1R; agonist Lys-Des-Arg9 bradykinin; % of maximum achievable inhibition; 10 µM
# Description: The agonistic or antagonistic action of substances can be quantified on the bradykinin 1 receptor (B1R) of the human and rat species with ectopically expressing cell lines (CHO K1 cells) and with the aid of a Ca^2+-sensitive dye (Fluo-4) using a fluorescent imaging plate reader (FLIPR). The indication in % activation is based on the Ca^2+ signal after addition of Lys-Des-Arg^9 bradykinin (0.5 nM) or Des-Arg^9 bradykinin (100 nM). Antagonists lead to a suppression of the Ca^2+ influx following administration of the agonist. The % inhibition in comparison with the maximum achievable inhibition is indicated.
# 1. Functional Investigation on the Bradykinin 1 Receptor (B1R)
# The agonistic or antagonistic action of substances can be determined on the bradykinin 1 receptor (B1R) of the human and rat species with the following assay. According to this assay, the Ca^2+ inflow through the channel is quantified with the aid of a Ca^2+-sensitive dye (Fluo-4 type, Molecular Probes Europe BV, Leiden, Netherlands) in a fluorescent imaging plate reader (FLIPR, Molecular Devices, Sunnyvale, USA).
# Chinese hamster ovary cells (CHO K1 cells) which are stably transfected with the human B1R gene (hB1R cells) or the B1R gene of the rat (rB1R cells) are used. For functional investigations these cells are plated-out onto black 96-well plates with a clear base (BD Biosciences, Heidelberg, Germany or Greiner, Frickenhausen, Germany) in a density of 20,000-35,000 cells/well. Overnight the cells are incubated at 37° C. and 5% CO2 in culture medium (hB1R cells: Ham's Nutrient Mixture F12, Gibco Invitrogen GmbH, Karlsruhe, Germany or DMEM, Sigma-Aldrich, Taufkirchen, Germany; rB1R cells: D-MEM/F12, Gibco Invitrogen, Karlsruhe, Germany) with 10 vol. % FBS (foetal bovine serum, Gibco Invitrogen GmbH, Karlsruhe, Germany or PAN Biotech GmbH, Aidenbach, Germany).
# On the following day the cells are loaded with 2.13 μM Fluo-4 (Molecular Probes Europe BV, Leiden, Netherlands) in HBSS buffer (Hank's buffered saline solution, Gibco Invitrogen GmbH, Karlsruhe, Germany) with 2.5 mM probenecid (Sigma-Aldrich, Taufkirchen, Germany) and 10 mM HEPES (Sigma-Aldrich, Taufkirchen, Germany) for 60 min at 37° C. The plates are subsequently washed twice with HBSS buffer, and HBSS buffer which additionally contains 0.1% BSA (bovine serum albumin; Sigma-Aldrich, Taufkirchen, Germany), 5.6 mM glucose and 0.05% gelatine (Merck KGaA, Darmstadt, Germany) is added. After a further incubation of 20 minutes at room temperature, the plates are inserted into the FLIPR for Ca^2+ measurement.
# Alternatively they are washed with buffer A (15 mM HEPES, 80 mM NaCl, 5 mM KCl, 1.2 mM CaCl2, 0.7 mM MgSO4, 2 g/l glucose, 2.5 mM probenecid) and loaded with buffer A with added 2.5 μM Fluo-4 and 0.025% Pluronic F127 (Sigma-Aldrich, Taufkirchen, Germany). The cells are then washed twice with buffer A and incubated for 30 minutes with buffer A, which additionally contains 0.05% BSA and 0.05% gelatine, at room temperature and then used for Ca^2+ measurement in the FLIPR. The Ca^2+-dependent fluorescence is measured here before and after addition of substances (λex=488 nm, λem=540 nm). The quantification is performed by measuring the highest fluorescence intensity (FC, fluorescence counts) over time.
# The FLIPR protocol comprises two additions of substance. Test substances (10 μM) are first pipetted onto the cells and the Ca^2+ inflow is compared with the control (hB1R: Lys-Des-Arg^9 bradykinin>=50 nM; rB1R: Des-Arg^9 bradykinin 10 μM). The value in % activation based on the Ca^2+ signal after addition of Lys-Des-Arg^9 bradykinin (>=50 nM) or Des-Arg^9 bradykinin (10 μM) is obtained therefrom. After incubation for 10-20 minutes, Lys-Des-Arg^9 bradykinin (hB1R) or Des-Arg^9 bradykinin (rB1R) is applied in the EC80 concentration and the inflow of Ca^2+ is likewise determined.
# Antagonists lead to a suppression of the Ca^2+ inflow. The % inhibition in comparison with the maximum achievable inhibition is calculated. […]
row,"B1R antagonism, human [10 μM] % inhibition [%]",Compound
1,99,"O=C(CCn1ccc2ccc(N3Cc4cccc(Cl)c4C3=O)cc21)N1CCC2(CC1)CCN(c1ccncc1)CC2 [G_CC-67, 7-Chloro-2-[1-[3-oxo-3-(3-pyridin-4-yl-3,9-diazaspiro[5.5]undecan-9-yl)-propyl]-1H-indol-6-yl]-2,3-dihydro-isoindol-1-one]"

# Same assay, conditions: CHO-K1, 10 μM test substance; CHO K1 cells with human B1R; agonist Lys-Des-Arg9 bradykinin; % of maximum achievable inhibition; read-out: B1R antagonism, human [10 μM] % inhibition
row,inhibition at 10 µM [%],Compound
1,99,"O=C(Cn1ccc2ccc(N3Cc4cccc(Cl)c4C3=O)cc21)N1CCC2(CCC(N3CCC3)CC2)CC1 [Compound G-21, 2-(1-(2-(9-(Azetidin-1-yl)-3-azaspiro[5.5]undecan-3-yl)-2-oxoethyl)-1H-indol-6-yl)-7-chloroisoindolin-1-one]"
2,100,"COc1cc(C)c(S(=O)(=O)Nc2cccc3ccn(CC(=O)N4CCC5(CCC(Oc6ccncc6)CC5)CC4)c23)c(C)c1 [Compound G-22, 4-Methoxy-2,6-dimethyl-N-(1-(2-oxo-2-(9-(pyridin-4-yloxy)-3-azaspiro[5.5]undecan-3-yl)ethyl)-1H-indol-7-yl)benzenesulfonic acid amide]"
3,100,"Cn1c2c(c3c(Cl)cccc31)C(=O)N(c1ccc3ccn(CC(=O)N4CCC5(CC4)CCN(c4ccncc4)CC5)c3c1)C2 [Compound G-23, 8-Chloro-4-methyl-2-[1-[2-oxo-2-(9-pyridin-4-yl-3,9-diazaspiro[5.5]undecan-3-yl)-ethyl]-1H-indol-6-yl]-3,4-dihydro-2H-pyrrolo[3,4-b]indol-1-one]"
4,98,"COc1cc(C)c(S(=O)(=O)NCc2cccc3ccn(CC(=O)N4CCC5(CC4)CCN(c4ccncc4)CC5)c23)c(C)c1 [Compound G-24, 4-Methoxy-2,6-dimethyl-N-[[1-[2-oxo-2-(9-pyridin-4-yl-3,9-diazaspiro[5.5]undecan-3-yl)-ethyl]-1H-indol-7-yl]-methyl]-benzenesulfonic acid amide]"
5,98,"Cc1cccc2c1C(=O)N(c1ccc3ccn(CC(=O)N4CCC5(CC4)CCN(c4ccncc4)CC5)c3c1)C2 [Compound G-26, 7-Methyl-2-[1-[2-oxo-2-(9-pyridin-4-yl-3,9-diazaspiro[5.5]undecan-3-yl)-ethyl]-1H-indol-6-yl]-2,3-dihydro-isoindol-1-one]"
6,96,"Cc1ccc2n1C(=O)N(c1ccc3ccn(CC(=O)N4CCC5(CC4)CCN(c4ccncc4)CC5)c3c1)C2 [Compound G-27, 5-Methyl-2-[1-[2-oxo-2-(9-pyridin-4-yl-3,9-diazaspiro[5.5]undecan-3-yl)-ethyl]-1H-indol-6-yl]-1,2-dihydro-pyrrolo[2,1-e]imidazol-3-one]"
7,80,"O=C(Cn1ccc2ccc(N3CCn4c(c(Cl)c5ccccc54)C3=O)cc21)N1CCC2(CC1)CCN(c1ccncc1)CC2 [Compound G-31, 10-Chloro-2-[1-[2-oxo-2-(9-pyridin-4-yl-3,9-diazaspiro[5.5]undecan-3-yl)-ethyl]-1H-indol-6-yl]-3,4-dihydro-2H-pyrazino[1,2-a]indol-1-one]"
8,93,"O=C(Cn1ccc2ccc(N3CCn4ccc(Cl)c4C3=O)cc21)N1CCC2(CC1)CCN(c1ccncc1)CC2 [Compound G-33, 8-Chloro-2-[1-[2-oxo-2-(9-pyridin-4-yl-3,9-diazaspiro[5.5]undecan-3-yl)-ethyl]-1H-indol-6-yl]-3,4-dihydro-2H-pyrrolo[1,2-a]pyrazin-1-one]"
9,46,"COc1cc(C)c(S(=O)(=O)Nc2ccc3ccn(CC(=O)N4CCC(N5CCN(C)CC5)CC4)c3c2)c(C)c1 [G_CC-2, 4-Methoxy-2,6-dimethyl-N-[1-[2-[4-(4-methyl-piperazin-1-yl)-piperidin-1-yl]-2-oxo-ethyl]-1H-indol-6-yl]-benzenesulfonic acid amide]"
10,26,"Cc1cc(S(=O)(=O)Nc2ccc3ccn(CC(=O)N4CCN(CC5CCN(C)CC5)CC4)c3c2)c(C)cc1Cl [G_CC-8, 4-Chloro-2,5-dimethyl-N-[1-[2-[4-[(1-methyl-piperidin-4-yl)-methyl]-piperazin-1-yl]-2-oxo-ethyl]-1H-indol-6-yl]-benzenesulfonic acid amide]"
11,73,"COc1cc(C)c(S(=O)(=O)Nc2cccc3ccn(CC(=O)N4CCC5(CC4)CCN(Cc4ccccc4)C5=O)c23)c(C)c1 [G_CC-32, N-[1-[2-(3-Benzyl-4-oxo-3,8-diazaspiro[4.5]decan-8-yl)-2-oxo-ethyl]-1H-indol-7-yl]-4-methoxy-2,6-dimethyl-benzenesulfonic acid amide]"
12,100,"COc1cc(C)c(S(=O)(=O)Nc2cccc3ccn(CCC(=O)N4CCN(CC5CCN(C)CC5)CC4)c23)c(C)c1 [G_CC-43, 4-Methoxy-2,6-dimethyl-N-[1-[3-[4-[(1-methyl-piperidin-4-yl)-methyl]-piperazin-1-yl]-3-oxo-propyl]-1H-indol-7-yl]-benzenesulfonic acid amide]"
13,100,"COc1cc(C)c(S(=O)(=O)Nc2cccc3ccn(CCC(=O)NCCC4CCN(c5ccncc5)CC4)c23)c(C)c1 [G_CC-47, 3-[7-[[(4-Methoxy-2,6-dimethyl-phenyl)sulfonyl]amino]-1H-indol-1-yl]-N-[2-(1-pyridin-4-yl-piperidin-4-yl)-ethyl]-propionamide]"
14,99,"COc1cc(C)c(S(=O)(=O)Nc2cccc3ccn(CCC(=O)N4CCC5(CC4)CCN(c4ccncc4)CC5)c23)c(C)c1 [G_CC-54, 4-Methoxy-2,6-dimethyl-N-[1-[3-oxo-3-(3-pyridin-4-yl-3,9-diazaspiro[5.5]undecan-9-yl)-propyl]-1H-indol-7-yl]-benzenesulfonic acid amide]"
15,94,"Cc1cc(S(=O)(=O)Nc2cccc3ccn(CCC(=O)N4CCN(CC5CCN(C)CC5)CC4)c23)c(C)cc1Cl [G_CC-62, 4-Chloro-2,5-dimethyl-N-[1-[3-[4-[(1-methyl-piperidin-4-yl)-methyl]-piperazin-1-yl]-3-oxo-propyl]-1H-indol-7-yl]-benzenesulfonic acid amide]"
16,92,"COc1cc(C)c(S(=O)(=O)Nc2ccc3ccn(CC(=O)N(C)CCCN4CCN(c5ccncc5)CC4)c3c2)c(C)c1 [G_CC-76, 2-[6-[[(4-Methoxy-2,6-dimethyl-phenyl)sulfonyl]amino]-1H-indol-1-yl]-N-methyl-N-[3-(4-pyridin-4-yl-piperazin-1-yl)-propyl]-acetamide]"
17,100,"COc1cc(C)c(S(=O)(=O)Nc2cccc3ccn(CC(=O)N(C)CCCN4CCN(c5ccncc5)CC4)c23)c(C)c1 [G_CC-88, 2-[7-[[(4-Methoxy-2,6-dimethyl-phenyl)sulfonyl]amino]-1H-indol-1-yl]-N-methyl-N-[3-(4-pyridin-4-yl-piperazin-1-yl)-propyl]-acetamide]"
